According to ChEMBL document CHEMBL1201861, “Genomics of Drug Sensitity in Cancer screening data, Wellcome Trust Sanger Institute”:
pIC50: −log10 of the molar value.

How the values were obtained:
Assay in all cases: cells
[1] = tested on: GT3TKB; type: functional, cell-based, Homo sapiens; settings: Homo sapiens, GT3TKB;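 further: growth inhibition of the cell line, read out with a cell viability assay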
Description: SANGER: Inhibition of human GT3TKB cell growth in a cell viability assay.

[2] = tested on: SCC-15; type: functional, cell-based, Homo sapiens; settings: Homo sapiens, SCC-15;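 further: growth inhibition of SCC-15 cells, read out with a cell viability assay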
Description: SANGER: Inhibition of human SCC-15 cell growth in a cell viability assay.

[3] = tested on: SW872; type: functional, cell-based, Homo sapiens; settings: Homo sapiens, SW872;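 further: growth inhibition of SW872 cells, read out by a viability assay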
Description: SANGER: Inhibition of human SW872 cell growth in a cell viability assay.

[4] = tested on: BE-13; type: functional, cell-based, Homo sapiens; settings: Homo sapiens, BE-13;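 further: growth inhibition of human BE-13 cells, measured with a cell viability assay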
Description: SANGER: Inhibition of human BE-13 cell growth in a cell viability assay.

[5] = tested on: COLO-320-HSR; type: functional, cell-based, Homo sapiens; settings: Homo sapiens, COLO-320-HSR;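 further: growth inhibition of COLO-320-HSR cells, determined with a cell viability assay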
Description: SANGER: Inhibition of human COLO-320-HSR cell growth in a cell viability assay.

[6] = tested on: COLO-684; type: functional, cell-based, Homo sapiens; settings: Homo sapiens, COLO-684
Description: SANGER: Inhibition of human COLO-684 cell growth in a cell viability assay.

[7] = tested on: COLO-824; type: functional, cell-based, Homo sapiens; settings: Homo sapiens, COLO-824
Description: SANGER: Inhibition of human COLO-824 cell growth in a cell viability assay.

[8] = tested on: CW-2; type: functional, cell-based, Homo sapiens; settings: Homo sapiens, CW-2;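 further: growth inhibition of CW-2 cells, read out by a cell viability assay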
Description: SANGER: Inhibition of human CW-2 cell growth in a cell viability assay.

[9] = tested on: D-247MG; type: functional, cell-based; settings: Homo sapiens
Description: SANGER: Inhibition of human D-247MG cell growth in a cell viability assay.

[10] = tested on: DB; type: functional, cell-based, Homo sapiens; settings: Homo sapiens, DB
Description: SANGER: Inhibition of human DB cell growth in a cell viability assay.

[11] = tested on: DEL; type: functional, cell-based, Homo sapiens; settings: Homo sapiens, DEL;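 further: growth inhibition of the human DEL cell line, read out with a cell viability assay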
Description: SANGER: Inhibition of human DEL cell growth in a cell viability assay.

[12] = tested on: DMS-114; type: functional, cell-based, Homo sapiens; settings: Homo sapiens, DMS-114
[13] = tested on: DSH1; type: functional, cell-based; settings: Homo sapiens;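 further: growth inhibition of human DSH1 cells, measured with a cell viability readout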
Description: SANGER: Inhibition of human DSH1 cell growth in a cell viability assay.

[14] = tested on: ES3; type: functional, cell-based, Homo sapiens; settings: Homo sapiens, ES3;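 further: growth inhibition of ES3 cells, read out with a cell viability assay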
Description: SANGER: Inhibition of human ES3 cell growth in a cell viability assay.

[15] = tested on: ES8; type: functional, cell-based, Homo sapiens; settings: Homo sapiens, ES8;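 further: growth inhibition of human ES8 cells, read out with a cell viability assay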
Description: SANGER: Inhibition of human ES8 cell growth in a cell viability assay.

[16] = tested on: GB-1; type: functional, cell-based, Homo sapiens; settings: Homo sapiens, GB-1;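 further: growth of GB-1 cells judged by a viability assay, IC50 marks the concentration inhibiting growth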
Description: SANGER: Inhibition of human GB-1 cell growth in a cell viability assay.

[17] = tested on: GCIY; type: functional, cell-based, Homo sapiens; settings: Homo sapiens, GCIY;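 further: growth inhibition of the human GCIY cell line, read out by a cell viability assay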
Description: SANGER: Inhibition of human GCIY cell growth in a cell viability assay.

[18] = tested on: GR-ST; type: functional, cell-based, Homo sapiens; settings: Homo sapiens, GR-ST
Description: SANGER: Inhibition of human GR-ST cell growth in a cell viability assay.

[19] = tested on: HAL-01; type: functional, cell-based, Homo sapiens; settings: Homo sapiens, HAL-01;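 further: growth inhibition of human HAL-01 cells, read out with a cell viability assay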
Description: SANGER: Inhibition of human HAL-01 cell growth in a cell viability assay.

[20] = tested on: HH; type: functional, cell-based, Homo sapiens; settings: Homo sapiens, HH
Description: SANGER: Inhibition of human HH cell growth in a cell viability assay.

[21] = tested on: JAR; type: functional, cell-based, Homo sapiens; settings: Homo sapiens, JAR;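 further: growth inhibition of human JAR cells determined with a cell viability assay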
Description: SANGER: Inhibition of human JAR cell growth in a cell viability assay.

[22] = tested on: K5; type: functional, cell-based, Homo sapiens; settings: Homo sapiens, K5
Description: SANGER: Inhibition of human K5 cell growth in a cell viability assay.

[23] = tested on: KM-H2; type: functional, cell-based, Homo sapiens; settings: Homo sapiens, KM-H2;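 further: growth inhibition of KM-H2 cells, read out by a cell viability assay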
Description: SANGER: Inhibition of human KM-H2 cell growth in a cell viability assay.

[24] = tested on: LB1047-RCC; type: functional, cell-based, Homo sapiens; settings: Homo sapiens, LB1047-RCC;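 further: inhibition of cell growth, determined with a cell viability assay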
Description: SANGER: Inhibition of human LB1047-RCC cell growth in a cell viability assay.

[25] = tested on: LB2241-RCC; type: functional, cell-based, Homo sapiens; settings: Homo sapiens, LB2241-RCC;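 further: cell viability assay measuring how strongly the cultured human renal carcinoma line is prevented from growing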
Description: SANGER: Inhibition of human LB2241-RCC cell growth in a cell viability assay.

[26] = tested on: LS-123; type: functional, cell-based, Homo sapiens; settings: Homo sapiens, LS-123
Description: SANGER: Inhibition of human LS-123 cell growth in a cell viability assay.

[27] = tested on: LS-411N; type: functional, cell-based, Homo sapiens; settings: Homo sapiens, LS-411N
[28] = tested on: MC116; type: functional, cell-based, Homo sapiens; settings: Homo sapiens, MC116;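 further: growth inhibition of MC116 cells, read out with a cell viability assay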
Description: SANGER: Inhibition of human MC116 cell growth in a cell viability assay.

[29] = tested on: MHH-NB-11; type: functional, cell-based, Homo sapiens; settings: Homo sapiens, MHH-NB-11;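 further: growth inhibition of human MHH-NB-11 cells, read out by a cell viability assay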
Description: SANGER: Inhibition of human MHH-NB-11 cell growth in a cell viability assay.

[30] = tested on: MHH-PREB-1; type: functional, cell-based, Homo sapiens; settings: Homo sapiens, MHH-PREB-1;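 further: cell viability assay measuring inhibition of proliferation of human MHH-PREB-1 cells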
Description: SANGER: Inhibition of human MHH-PREB-1 cell growth in a cell viability assay.

[31] = tested on: MLMA; type: functional, cell-based, Homo sapiens; settings: Homo sapiens, MLMA;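 further: growth inhibition of MLMA cells (human), determined through a cell viability readout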
Description: SANGER: Inhibition of human MLMA cell growth in a cell viability assay.

[32] = tested on: NB6; type: functional, cell-based, Homo sapiens; settings: Homo sapiens, NB6;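 further: growth inhibition of NB6 cells, read out by a cell viability assay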
Description: SANGER: Inhibition of human NB6 cell growth in a cell viability assay.

[33] = tested on: NCI-H1650; type: functional, cell-based, Homo sapiens; settings: Homo sapiens, NCI-H1650;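 further: growth inhibition of human NCI-H1650 cells measured by a cell viability assay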
Description: SANGER: Inhibition of human NCI-H1650 cell growth in a cell viability assay.

[34] = tested on: NCI-H526; type: functional, cell-based, Homo sapiens; settings: Homo sapiens, NCI-H526;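 further: growth inhibition of the human NCI-H526 cell line, measured by a cell viability assay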
Description: SANGER: Inhibition of human NCI-H526 cell growth in a cell viability assay.

[35] = tested on: NMC-G1; type: functional, cell-based, Homo sapiens; settings: Homo sapiens, NMC-G1;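 further: growth inhibition of the NMC-G1 cell line, measured with a cell viability read-out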
Description: SANGER: Inhibition of human NMC-G1 cell growth in a cell viability assay.

[36] = tested on: RS4-11; type: functional, cell-based, Homo sapiens; settings: Homo sapiens, RS4-11;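 further: growth inhibition of RS4-11 cells, read out by a cell viability assay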
Description: SANGER: Inhibition of human RS4-11 cell growth in a cell viability assay.

[37] = tested on: SF-268; type: functional, cell-based, Homo sapiens; settings: Homo sapiens, SF-268;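 further: growth inhibition of SF-268 cells determined with a cell viability assay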
Description: SANGER: Inhibition of human SF268 cell growth in a cell viability assay.

[38] = tested on: SJSA-1; type: functional, cell-based, Homo sapiens; settings: Homo sapiens, SJSA-1;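 further: growth inhibition of human SJSA-1 cells, read out through a cell viability measurement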
Description: SANGER: Inhibition of human SJSA-1 cell growth in a cell viability assay.

[39] = tested on: SW982; type: functional, cell-based; settings: Homo sapiens;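 further: growth inhibition of SW982 cells, read out with a cell viability assay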
Description: SANGER: Inhibition of human SW982 cell growth in a cell viability assay.

[40] = tested on: 8-MG-BA; type: functional, cell-based, Homo sapiens; settings: Homo sapiens, 8-MG-BA;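 further: growth inhibition of 8-MG-BA cells, read out with a cell viability assay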
Description: SANGER: Inhibition of human 8-MG-BA cell growth in a cell viability assay.

[41] = tested on: A498; type: functional, cell-based, Homo sapiens; settings: Homo sapiens, A498;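 further: growth inhibition of human A498 cells, read out with a cell viability assay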
Description: SANGER: Inhibition of human A498 cell growth in a cell viability assay.

[42] = tested on: BB65-RCC; type: functional, cell-based, Homo sapiens; settings: Homo sapiens, BB65-RCC;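 further: growth inhibition of the cell line, measured with a cell viability assay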
Description: SANGER: Inhibition of human BB65-RCC cell growth in a cell viability assay.

[43] = tested on: BT-474; type: functional, cell-based, Homo sapiens; settings: Homo sapiens, BT-474
Description: SANGER: Inhibition of human BT-474 cell growth in a cell viability assay.

[44] = tested on: C2BBe1; type: functional, cell-based, Homo sapiens; settings: Homo sapiens, C2BBe1;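 further: growth inhibition of C2BBe1 cells, read out through a viability assay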
Description: SANGER: Inhibition of human C2BBe1 cell growth in a cell viability assay.

[45] = tested on: TE-11; type: functional, cell-based; settings: Homo sapiens;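 further: growth inhibition of human TE-11 cells, read out by a cell viability assay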
Description: SANGER: Inhibition of human TE-11 cell growth in a cell viability assay.

[46] = tested on: TE-9; type: functional, cell-based, Homo sapiens; settings: Homo sapiens, TE-9;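 further: cell growth inhibition, measured with a cell viability readout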
Description: SANGER: Inhibition of human TE-9 cell growth in a cell viability assay.

[47] = tested on: TGBC24TKB; type: functional, cell-based; settings: Homo sapiens;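 further: growth inhibition of human TGBC24TKB cells, read out with a cell viability assay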
Description: SANGER: Inhibition of human TGBC24TKB cell growth in a cell viability assay.

[48] = tested on: no-10; type: functional, cell-based, Homo sapiens; settings: Homo sapiens;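 further: growth inhibition of no-10 cells, read out with a cell viability assay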
Description: SANGER: Inhibition of human no-10 cell growth in a cell viability assay.

`CO[C@@H]1[C@H](N(C)C(=O)c2ccccc2)C[C@H]2O[C@]1(C)n1c3ccccc3c3c4c(c5c6ccccc6n2c5c31)C(=O)NC4` [MIDOSTAURIN] was tested, and the pIC50 [1] was 6.42, the pIC50 [2] was less than 6.29 and the pIC50 [3] was less than 6.29. It also gave a pIC50 [4] of less than 6.29, a pIC50 [5] of less than 6.29 and a pIC50 [6] of less than 6.29.
Work on `CC1=C(/C=C/C(C)=C/C=C/C(C)=C/C(=O)O)C(C)(C)CCC1` [TRETINOIN] yielded a pIC50 [7] of less than 5.00, a pIC50 [8] of less than 5.00 and a pIC50 [9] of less than 5.00. It also gave a pIC50 [10] of 5.32, a pIC50 [11] of less than 5.00 and a pIC50 [12] of less than 5.00. For the same compound, the pIC50 [13] was less than 5.00, the pIC50 [14] was less than 5.00 and the pIC50 [15] was less than 5.00. It also gave a pIC50 [16] of less than 5.00, a pIC50 [17] of less than 5.00 and a pIC50 [18] of less than 5.00. The pIC50 [1] was less than 5.00, the pIC50 [19] was less than 5.00 and the pIC50 [20] was 6.71. The pIC50 [21] was less than 5.00, the pIC50 [22] was less than 5.00 and the pIC50 [23] was less than 5.00. The pIC50 [24] was less than 5.00, the pIC50 [25] was less than 5.00 and the pIC50 [26] was less than 5.00. For the same compound, the pIC50 [27] was less than 5.00, the pIC50 [28] was less than 5.00 and the pIC50 [29] was less than 5.00. It also gave a pIC50 [30] of less than 5.00, a pIC50 [31] of less than 5.00 and a pIC50 [32] of less than 5.00. For the same compound, the pIC50 [33] was less than 5.00, the pIC50 [34] was 5.11 and the pIC50 [35] was less than 5.00. The pIC50 [36] was 5.35, the pIC50 [2] was 5.03 and the pIC50 [37] was less than 5.00. The pIC50 [38] was less than 5.00, the pIC50 [3] was less than 5.00 and the pIC50 [39] was less than 5.00. It also gave a pIC50 [40] of less than 5.00, a pIC50 [41] of less than 5.00 and a pIC50 [42] of less than 5.00. For the same compound, the pIC50 [4] was less than 5.00, the pIC50 [43] was less than 5.00 and the pIC50 [44] was less than 5.00. The pIC50 [45] was less than 5.00, the pIC50 [46] was less than 5.00 and the pIC50 [47] was less than 5.00. For the same compound, the pIC50 [48] was less than 5.00, the pIC50 [5] was less than 5.00 and the pIC50 [6] was less than 5.00.
`NC(=O)c1ccc(N(C(N)=O)c2c(F)cccc2F)nc1-c1ccc(F)cc1F` [VX-702] showed a pIC50 [7] of less than 5.70, a pIC50 [8] of less than 5.70 and a pIC50 [9] of less than 5.70. It also gave a pIC50 [10] of less than 5.70, a pIC50 [11] of less than 5.70 and a pIC50 [12] of less than 5.70. The pIC50 [13] was less than 5.70, the pIC50 [14] was less than 5.70 and the pIC50 [15] was less than 5.70. It also gave a pIC50 [16] of less than 5.70, a pIC50 [17] of less than 5.70 and a pIC50 [18] of less than 5.70. It also gave a pIC50 [1] of less than 5.70, a pIC50 [19] of less than 5.70 and a pIC50 [20] of less than 5.70. For the same compound, the pIC50 [21] was less than 5.70, the pIC50 [22] was 6.64 and the pIC50 [23] was less than 5.70. For the same compound, the pIC50 [24] was less than 5.70, the pIC50 [25] was less than 5.70 and the pIC50 [26] was less than 5.70. The pIC50 [27] was less than 5.70, the pIC50 [28] was less than 5.70 and the pIC50 [29] was less than 5.70. The pIC50 [30] was less than 5.70, the pIC50 [31] was less than 5.70 and the pIC50 [32] was less than 5.70. For the same compound, the pIC50 [33] was less than 5.70, the pIC50 [34] was less than 5.70 and the pIC50 [35] was less than 5.70. It also gave a pIC50 [36] of less than 5.70, a pIC50 [2] of less than 5.70 and a pIC50 [37] of less than 5.70. The pIC50 [38] was less than 5.70, the pIC50 [3] was less than 5.70 and the pIC50 [39] was less than 5.70. It also gave a pIC50 [40] of less than 5.70, a pIC50 [41] of less than 5.70 and a pIC50 [42] of less than 5.70. The pIC50 [4] was less than 5.70, the pIC50 [43] was less than 5.70 and the pIC50 [44] was less than 5.70. It also gave a pIC50 [45] of less than 5.70, a pIC50 [46] of less than 5.70 and a pIC50 [47] of less than 5.70. For the same compound, the pIC50 [48] was less than 5.70, the pIC50 [5] was less than 5.70 and the pIC50 [6] was less than 5.70.
